Data as given in US20240425502A1, “BICYCLIC HETEROAROMATIC COMPOUNDS AND THEIR USE AS PEST CONTROL AGENTS” (PI INDUSTRIES LTD., priority 2021, published 2024).

What was measured:
Type in all cases: in vivo
Bemisia tabaci = Bemisia tabaci leaf dip test (brinjal leaves, whitefly adults); conditions: foliar, 72 h after release, dead and moribund combined, compared to untreated control, read-out: percent mortality
Method: The leaf dip method was used for testing, wherein the required quantity of the compound was weighed and dissolved in a tube containing a solvent solution. The tube was put on a vortex at 2000 rpm for 90 min for proper mixing and then the mixture was diluted with a 0.01% Triton-X solution to the desired test concentration. Brinjal leaves were dipped in the compound solution for 10 seconds, shade dried for 20 min and then placed, with the abaxial side of the leaf up, on 4 ml of a 1% agar-agar solution in respective container caps. Known numbers of freshly emerged whitefly adults were collected, using a modified aspirator, and released into a perforated container in which the cap containing the treated leaf was placed. The containers were kept in a plant growth chamber at a temperature of 25° C. and a relative humidity of 70%. Observations on dead, moribund and alive adults were recorded 72 h after the release. Percent mortality was calculated by combining dead and moribund adults and comparing the result to the one of the untreated control. The compounds 32 53 58 79 80 81 82 84 87 88 89 94 95 96 101 102 103 104 105 106 107 108 109 112 113 114 115 116 117 118 119 120 123 124 125 126 127 130 135 138 139 140 144 145 147 150 154 156 158 159 164 167 168 169 170 171 188 189 191 198 199 200 201 202 206 207 208 209 210 213 216 223 224 225 227 228 231 232 233 234 235 236 238 242 243 244 246 and 247 recorded≥70 percent mortality @ 300 PPM.

Nilaparvata lugens = Nilaparvata lugens seedling dip test (paddy seedlings, third instar nymphs); conditions: 72 h after release, dead and moribund combined, compared to untreated control, read-out: percent mortality
Myzus persicae = Myzus persicae leaf dip test (capsicum leaves, third instar nymphs); conditions: foliar, 72 h after release, dead and moribund combined, compared to untreated control, read-out: percent mortality

Measured: mortality at 300 ppm

O=c1nc2n(Cc3ccc(Cl)nc3)cccc-2c(=O)n1-c1ccc2c(c1)OC(F)(F)O2 [Compound 199, 8-((6-chloropyridin-3-yl)methyl)-3-(2,2-difluorobenzo[d][1,3]dioxol-5-yl)pyrido[2,3-d]pyrimidine-2,4(3H,8H)-dione]
≥ 70%: all assays above

O=c1nc2n(Cc3cnc(Cl)nc3)cccc-2c(=O)n1-c1cc(Cl)cc(Cl)c1 [Compound 201, 8-((2-chloropyrimidin-5-yl)methyl)-3-(3,5-dichlorophenyl)pyrido[2,3-d]pyrimidine-2,4(3H,8H)-dione]
≥ 70%: all assays above

O=c1nc2n(Cc3cnc(Cl)nc3)cccc-2c(=O)n1-c1ccc(F)cc1F [Compound 207, 8-((2-chloropyrimidin-5-yl)methyl)-3-(2,4-difluorophenyl)pyrido[2,3-d]pyrimidine-2,4(3H,8H)-dione]
≥ 70%: all assays above

O=c1nc2n(Cc3cnc(Cl)nc3)cccc-2c(=O)n1-c1ccc(Cl)c(F)c1 [Compound 208, 3-(4-chloro-3-fluorophenyl)-8-((2-chloropyrimidin-5-yl)methyl)pyrido[2,3-d]pyrimidine-2,4(3H,8H)-dione]
≥ 70%: all assays above

O=c1c2cccn(Cc3cnc(Cl)nc3)c-2nc(=S)n1-c1ccc(Cl)cc1 [Compound 210, 3-(4-chlorophenyl)-8-((2-chloropyrimidin-5-yl)methyl)-2-thioxo-2,8-dihydropyrido[2,3-d]pyrimidin-4(3H)-one]
≥ 70%: all assays above

O=c1nc2n(Cc3cnc(Cl)nc3)cccc-2c(=O)n1-c1ccc(F)c(C(F)(F)F)c1 [Compound 213, 8-((2-chloropyrimidin-5-yl)methyl)-3-(4-fluoro-3-(trifluoromethyl)phenyl)pyrido[2,3-d]pyrimidine-2,4(3H,8H)-dione]
≥ 70%: all assays above

O=c1nc2n(Cc3cnc(Cl)nc3)cccc-2c(=O)n1-c1ccc(OCC(F)(F)F)cc1 [Compound 216, 8-((2-chloropyrimidin-5-yl)methyl)-3-(4-(2,2,2-trifluoroethoxy)phenyl)pyrido[2,3-d]pyrimidine-2,4(3H,8H)-dione]
≥ 70%: all assays above

O=c1nc2n(Cc3ccc(Cl)nc3)cccc-2c(=O)n1-c1ccc(OCC(F)(F)F)cc1 [Compound 223, 8-((6-chloropyridin-3-yl)methyl)-3-(4-(2,2,2-trifluoroethoxy)phenyl)pyrido[2,3-d]pyrimidine-2,4(3H,8H)-dione]
≥ 70%: all assays above

O=c1nc2n(Cc3cnc(Cl)nc3)cccc-2c(=O)n1-c1ccc(F)cc1Cl [Compound 225, 3-(2-chloro-4-fluorophenyl)-8-((2-chloropyrimidin-5-yl)methyl)pyrido[2,3-d]pyrimidine-2,4(3H,8H)-dione]
≥ 70%: all assays above

O=c1nc2n(Cc3cnc(Cl)nc3)cccc-2c(=O)n1-c1cccc(Br)c1 [Compound 231, 3-(3-bromophenyl)-8-((2-chloropyrimidin-5-yl)methyl)pyrido[2,3-d]pyrimidine-2,4(3H,8H)-dione]
≥ 70%: all assays above

O=c1nc2n(Cc3cnc(Cl)nc3)cccc-2c(=O)n1-c1ccc(F)c(Br)c1 [Compound 234, 3-(3-bromo-4-fluorophenyl)-8-((2-chloropyrimidin-5-yl)methyl)pyrido[2,3-d]pyrimidine-2,4(3H,8H)-dione]
≥ 70%: all assays above

O=c1nc2n(Cc3cnc(Cl)nc3)cccc-2c(=O)n1-c1ccc(Br)c(F)c1 [Compound 235, 3-(4-bromo-3-fluorophenyl)-8-((2-chloropyrimidin-5-yl)methyl)pyrido[2,3-d]pyrimidine-2,4(3H,8H)-dione]
≥ 70%: all assays above

O=c1nc2n(Cc3cnc(Cl)s3)cccc-2c(=O)n1-c1ccc(F)c(C(F)(F)F)c1 [Compound 242, 8-((2-chlorothiazol-5-yl)methyl)-3-(4-fluoro-3-(trifluoromethyl)phenyl)pyrido[2,3-d]pyrimidine-2,4(3H,8H)-dione]
≥ 70%: all assays above

O=c1nc2n(Cc3cnc(Cl)s3)cccc-2c(=O)n1-c1ccc(OCC(F)(F)F)cc1 [Compound 243, 8-((2-chlorothiazol-5-yl)methyl)-3-(4-(2,2,2-trifluoroethoxy)phenyl)pyrido[2,3-d]pyrimidine-2,4(3H,8H)-dione]
≥ 70%: all assays above

O=c1nc2n(Cc3cnc(Cl)nc3)cccc-2c(=O)n1-c1cc(F)cc(C(F)(F)F)c1 [Compound 244, 8-((2-chloropyrimidin-5-yl)methyl)-3-(3-fluoro-5-(trifluoromethyl)phenyl)pyrido[2,3-d]pyrimidine-2,4(3H,8H)-dione]
≥ 70%: all assays above

O=c1nc2n(Cc3ccc(Cl)nc3)cccc-2c(=O)n1-c1cccc(SC(F)(F)F)c1 [Compound 246, 8-((6-chloropyridin-3-yl)methyl)-3-(3-((trifluoromethyl)thio)phenyl)pyrido[2,3-d]pyrimidine-2,4(3H,8H)-dione]
≥ 70%: all assays above

O=c1nc2n(Cc3cnc(Cl)s3)cccc-2c(=O)n1-c1ccc2c(c1)OC(F)(F)O2 [Compound 247, 8-((2-chlorothiazol-5-yl)methyl)-3-(2,2-difluorobenzo[d][1,3]dioxol-5-yl)pyrido[2,3-d]pyrimidine-2,4(3H,8H)-dione]
≥ 70%: all assays above
